Reference: PMC9886975, “Ligand recognition mechanism of the human relaxin family peptide receptor 4 (RXFP4)” (Nature Communications, 2023)
“Also recorded” adds a separate entry of the source.

Legend:
Assay type in all cases: cell-based
human RXFP3 = experiment: inhibition of forskolin-induced cAMP accumulation, WT RXFP3 (hRXFP3-CHO); settings: binding and cAMP assays, Fig. 3e, Supplementary Fig. 2e–g
Protocol: CHO-K1 (ATCC, Cat#CCL-61) cells stably expressing human RXFP4 (hRXFP4-CHO) or RXFP3 (hRXFP3-CHO) were maintained in DMEM/F12 (Gibco) supplemented with 10% (v/v) fetal bovine serum (FBS) and 2 mM L-glutamine. Human embryonic kidney 293 T cells containing SV40 large T-antigen (HEK293T, ATCC, Cat#64127316) were maintained in DMEM (Gibco) supplemented with 10% (v/v) FBS, 1 mM sodium pyruvate (Gibco), 100 units/mL penicillin and 100 μg/mL streptomycin at 37 °C in 5% CO2. For cAMP assays in mutants, HEK293T cells were seeded onto 6-well cell culture plates at a density of 7 × 10^5 cells per well. After overnight incubation, cells were transfected with WT or mutant receptors using Lipofectamine 3000 transfection reagent (Invitrogen). Following 24 h culturing, the transfected cells were ready for detection.
(§1) Ligands were verified for their bioactivity in the beginning in hRXFP4-CHO, which were ready for use after 24 h culturing. […] The time-resolved fluorescence resonance energy transfer (TR-FRET) signals were detected by an EnVision multilabel plate reader (PerkinElmer) with the emission window ratio of 665 nm over 620 nm under 320 nm excitation. […]
All functional study data were analyzed using GraphPad Prism 8.3 (GraphPad Software) and presented as means ± S.E.M. from at least three independent experiments. Dose-response curves were evaluated with a three-parameter logistic equation. […]

RXFP4 Q205H = RXFP4 Q205H (Homo sapiens, UniProt Q8TDU9, Q205H); experiment: cAMP accumulation, RXFP4 Q205H; settings: HEK293T
From the text: (§2) The full-length human RXFP4 (NCBI Reference Sequence: NM_181885.3) was cloned into a modified pFastBac vector (Invitrogen) with HA signal peptide to enhance receptor expression, followed by a 10× histidine tag and BRIL insertion at the N terminus. LgBiT subunit (Promega) was fused at the C terminus of RXFP4 connected by a 15-amino acid polypeptide linker. […] The engineered human Gαi2, Gβ1, bovine Gγ2, and scFv16 were cloned into the pFastBac vector (Invitrogen), respectively. For cAMP accumulation assay, human RXFP4 and RXFP3 (NCBI Reference Sequence: NM_016568.3) were cloned into pCMV6 constructs (OriGene Technologies). The mutant receptors were modified by site-directed mutagenesis in the setting of the WT constructs, with the primers designed by QuikChange Primer Design [QuickChange Primer Design (http://agilent.com.cn)] and carried out using Phanta Max Master (Vazyme). N-terminal Flag tag was added to both WT and mutant receptors for surface expression measurement. […]
(§3) CHO-K1 (ATCC, Cat#CCL-61) cells stably expressing human RXFP4 (hRXFP4-CHO) or RXFP3 (hRXFP3-CHO) were maintained in DMEM/F12 (Gibco) supplemented with 10% (v/v) fetal bovine serum (FBS) and 2 mM L-glutamine. […] Following 24 h culturing, the transfected cells were ready for detection.
as §1
(§4) Inhibition of forskolin-induced cAMP accumulation was performed in HEK293T cells transiently transfected with WT and mutant receptors. All the mutant constructs were modified by single-point mutation in the setting of the WT receptor. cAMP accumulation data were analyzed using a three-parameter logistic equation to determine pEC50 and Emax values. Emax values for mutants are defined as the window between the maximal response and vehicle control (no ligand) and expressed as a percentage of the WT. […]

RXFP4 R208K = RXFP4 R208K (Homo sapiens, UniProt Q8TDU9, R208K); experiment: cAMP accumulation, RXFP4 R208K; settings: HEK293T
From the text: as §2, §3, §1, §4

RXFP4 L118A+V122A = biological target: T1, RXFP4 L118A+V122A (Homo sapiens, UniProt Q8TDU9, L118A/V122A); experiment: cAMP accumulation, RXFP4 L118A+V122A; settings: HEK293T
T1 construct: RXFP4(1-374)-; expressed in transfected cells; host or cells: HEK293T, transient (pCMV6)
From the text: (§5) The full-length human RXFP4 (NCBI Reference Sequence: NM_181885.3) was cloned into a modified pFastBac vector (Invitrogen) with HA signal peptide to enhance receptor expression, followed by a 10× histidine tag and BRIL insertion at the N terminus. LgBiT subunit (Promega) was fused at the C terminus of RXFP4 connected by a 15-amino acid polypeptide linker. […] The engineered human Gαi2, Gβ1, bovine Gγ2, and scFv16 were cloned into the pFastBac vector (Invitrogen), respectively. For cAMP accumulation assay, human RXFP4 and RXFP3 (NCBI Reference Sequence: NM_016568.3) were cloned into pCMV6 constructs (OriGene Technologies). […]
as §3, §1

RXFP4 D104A = biological target: T2, RXFP4 D104A (Homo sapiens, UniProt Q8TDU9, D104A); experiment: cAMP accumulation, RXFP4 D104A
T2 construct: RXFP4(1-374)-; expressed in transfected cells; host or cells: HEK293T, transient (pCMV6)
From the text: as §5, §3, §1

[1] = 1.5 μM forskolin, mean ± S.E.M., n = 3

Chain of RXFP4 R208K (Q8TDU9 whole entry R208K): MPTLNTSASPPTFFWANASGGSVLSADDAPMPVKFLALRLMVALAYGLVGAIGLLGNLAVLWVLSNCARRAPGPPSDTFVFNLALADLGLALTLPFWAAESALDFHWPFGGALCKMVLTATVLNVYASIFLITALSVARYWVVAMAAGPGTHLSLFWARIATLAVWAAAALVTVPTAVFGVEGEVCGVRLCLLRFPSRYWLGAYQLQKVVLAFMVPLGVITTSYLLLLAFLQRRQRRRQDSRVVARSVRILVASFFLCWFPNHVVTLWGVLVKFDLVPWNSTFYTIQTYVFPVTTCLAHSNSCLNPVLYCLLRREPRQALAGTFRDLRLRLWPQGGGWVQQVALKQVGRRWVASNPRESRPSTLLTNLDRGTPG
Chain of RXFP4 Q205H (Q8TDU9 whole entry Q205H, the tested form may be a part): as the sequence (Q8TDU9 whole entry R208K) above, with Q205H, K208R counted along it
T2 sequence (Q8TDU9 whole entry D104A): as the sequence (Q8TDU9 whole entry R208K) above, with D104A, K208R counted along it
T1 sequence (Q8TDU9 whole entry L118A/V122A): as the sequence (Q8TDU9 whole entry R208K) above, with L118A, V122A, K208R counted along it

| SMILES | cross-reactivity with RXFP3 (human RXFP3) | response (RXFP4 Q205H) | EC50 (RXFP4 Q205H; [1]) | Emax (RXFP4 Q205H; mean ± S.E.M.) | response (RXFP4 R208K) | EC50 (RXFP4 R208K; [1]) | Emax (RXFP4 R208K; mean ± S.E.M.) | response (RXFP4 L118A+V122A) | EC50 (RXFP4 D104A) | Emax (RXFP4 D104A; HEK293T, mean ± S.E.M.) |
| --- | --- | --- | --- | --- | --- | --- | --- | --- | --- | --- |
| CCOc1cc2c(cc1OC)CCN(C(=O)N1CCOCC1)[C@H]2CCc1c[nH]c2ccc(OC)cc12 [DC591053, (S)-(7-ethoxy-6-methoxy-1-(2-(5-methoxy-1H-indol-3-yl)ethyl)−3,4-dihydroisoquinolin-2(1H)-yl)(morpholino)methanone] | neither reacted with related RXFP3; also recorded: without observable cross-reactivity | more profound reduction for DC591053 than compound 4 | 676 nM | 25.10 ± 6.36 % WT | more profound reduction for DC591053 than compound 4 | 204 nM | 60.43 ± 6.52 % WT |  |  |  |
| CC[C@H](C)[C@@H]1NC(=O)[C@H](Cc2ccc(O)cc2)NC(=O)[C@H]([C@@H](C)CC)NC(=O)[C@H](C(C)C)NC(=O)[C@H]([C@@H](C)O)NC(=O)[C@H](CCCNC(=N)N)NC(=O)[C@H]([C@@H](C)CC)NC(=O)[C@H](Cc2ccc(O)cc2)NC(=O)[C@H](CCC(=O)O)NC(=O)[C@H](CC(C)C)NC(=O)CNC(=O)[C@@H](NC(=O)[C@H](CC(C)C)NC(=O)[C@H](CCCNC(=N)N)NC(=O)[C@@H](NC(=O)[C@H](CO)NC(=O)[C@H](CCC(=O)O)NC(=O)[C@@H](N)CCCCN)C(C)C)CSSC[C@@H]2NC(=O)[C@@H](NC(=O)[C@H](CC(C)C)NC(=O)[C@@H](NC(=O)[C@H](CCC(N)=O)NC(=O)[C@H](CC(C)C)NC(=O)[C@H](CC(=O)O)NC(=O)[C@@H](N)CCC(N)=O)[C@@H](C)O)CSSC[C@H](NC(=O)CNC(=O)[C@H](CC(=O)O)NC(=O)[C@H]([C@@H](C)O)NC2=O)C(=O)N[C@@H](CO)C(=O)N[C@@H](CCSC)C(=O)N[C@@H]([C@@H](C)O)C(=O)N[C@@H](CC(=O)O)C(=O)N[C@@H](CC(C)C)C(=O)N[C@@H](CO)C(=O)N[C@@H](C)C(=O)N[C@@H](CC(C)C)C(=O)N[C@H](C(=O)O)CSSC[C@@H](C(=O)N[C@@H](C)C(=O)N[C@@H](CO)C(=O)N[C@@H](CO)C(=O)N[C@@H](CCCNC(=N)N)C(=O)N[C@@H](Cc2c[nH]c3ccccc23)C(=O)O)NC1=O [INSL5, insulin-like peptide 5] |  |  |  |  |  |  |  | inactive | 1.62 nM | 59.09 ± 6.41 % WT |
